Assay results published in US20070232681A1, “Compounds Having Crth2 Antagonist Activity” (Oxagen Limited, priority 2003, published 2007).
pEC50, pIC50, pKi: −log10 of the molar value.

Each compound was assayed against T1, CRTH2 (Homo sapiens, UniProt Q9Y5Y4) (assay: [3H]PGD2 radioligand binding on CHO/CRTH2 cell membranes). Settings: competition versus [3H]PGD2, CHO/CRTH2 membranes.
T1 construct: expressed in transfected cells; host or cells: Chinese Hamster Ovary (CHO) cells, G418 selected
T1 sequence (Q9Y5Y4 1-395): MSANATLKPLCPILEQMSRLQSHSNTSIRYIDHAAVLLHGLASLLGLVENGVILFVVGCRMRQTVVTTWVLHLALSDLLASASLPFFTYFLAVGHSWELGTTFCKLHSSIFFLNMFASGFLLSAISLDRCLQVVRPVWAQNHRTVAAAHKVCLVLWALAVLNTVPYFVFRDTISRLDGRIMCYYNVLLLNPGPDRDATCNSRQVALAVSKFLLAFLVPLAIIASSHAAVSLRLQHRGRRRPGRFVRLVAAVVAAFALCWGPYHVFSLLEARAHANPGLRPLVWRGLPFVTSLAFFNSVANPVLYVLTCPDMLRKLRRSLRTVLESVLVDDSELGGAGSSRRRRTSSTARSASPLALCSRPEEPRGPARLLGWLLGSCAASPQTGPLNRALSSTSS
Procedure: (§1) Chinese Hamster Ovary cells were transfected with CRTH2 or DP receptors (CHO/CRTH2 and CHO/DP) and were maintained in culture in a humidified atmosphere at 37° C. (5% CO2) in Minimum Essential Medium (MEM) supplemented with 10% foetal bovine serum, 2 mM glutamine, and 1 mg ml^−1 active G418. The cells were passaged every 2-3 days. For radioligand binding assay, cells were prepared in triple-layer flasks or in 175 cm^2 square flasks (for membrane preparation). For calcium mobilisation assay, cells were grown in a 96 well plate 24 h prior to the assay at a density of 80,000 cells per well.
(§2) Membranes were prepared either from CHO/CRTH2 and CHO/DP cells, or from platelets (as a source of TP receptors). CHO cells grown to confluency were washed with PBS and detached using a Versene solution (15 ml per flask). When the cells were grown in 175 cm^2 square flask, they were collected by scrapping in PBS. The cell suspensions were centrifuged (1,700 rpm, 10 min, 4° C.) and resuspended in 15 ml of buffer (1×HBSS, supplemented with 10 mM HEPES, pH 7.3). Cell suspensions were then homogenised using an Ultra Turrax at setting 4-6 for 20 s. The homogenate was centrifuged at 1,700 rpm for 10 min and the supernatant was collected and centrifuged at 20,000 rpm for 1 h at 4° C. The resulting pellet was resuspended in buffer and stored at −80° C. in aliquots of 200-500 μl. The protein concentration was determined by the method of Bradford (1976), using bovine serum albumin as standard. The platelets were washed by centrifugation at 600×g for 10 min and resuspended in ice-cold assay buffer (10 mM Tris-HCl, pH 7.4, 5 mM Glucose, 120 mM NaCl, 10 μM indomethacin) and directly centrifuged at 20,000 rpm for 30 min at 4° C. The resulting pellet was treated as described above.
(§3) [3H]PGD2 (160 Ci/mmol) binding experiments were performed on membranes prepared as described above. Assays were performed in a final volume of 100 μl of buffer (1×HBSS/HEPES 10 mM, pH 7.3). Cell membranes (15 μg). Cell membranes […] were preincubated at room temperature with varying concentration of competing ligand for 15 min. [3H]PGD2 ([…]) was then added and the incubation continued for a further one hour at room temperature. The reaction was terminated by the addition of 200 μl ice-cold assay buffer to each well, followed by rapid filtration through Whatman GF/B glass fibre filters using a Unifilter Cell harvester (PerkinElmer Life Sciences) and six washes of 300 μl of ice-cold buffer. The Unifilter plates were dried at room temperature for at least 1 h and the radioactivity retained on the filters was determined on a Beta Trilux counter (PerkinElmer Life Sciences), following addition of 40 μl of Optiphase Hi-Safe 3 (Wallac) liquid scintillation. Non specific binding was defined in the presence of […] unlabelled PGD2. Assays were performed in duplicate.

pKi	Structure (SMILES)
6.74	Cc1c(S(=O)(=O)NCc2ccc(Cl)c(Cl)c2)c2cc(F)ccc2n1CC(=O)O [Compound 19, [3-(3,4-Dichloro-benzylsulfamoyl)-5-fluoro-2-methyl-indol-1-yl]-acetic acid]
6.27	COc1cccc(NS(=O)(=O)c2c(C)n(CC(=O)O)c3ccc(F)cc23)c1 [Compound 20, [5-Fluoro-3-(3-methoxy-phenylsulfamoyl)-2-methyl-indol-1-yl]-acetic acid]
6.75	Cc1cccc(NS(=O)(=O)c2c(C)n(CC(=O)O)c3ccc(F)cc23)c1 [Compound 21, (5-Fluoro-2-methyl-3-m-tolylsulfamoyl-indol-1-yl)-acetic acid]
5.91	Cc1ccc(NS(=O)(=O)c2c(C)n(CC(=O)O)c3ccc(F)cc23)cc1 [Compound 22, (5-Fluoro-2-methyl-3-p-tolylsulfamoyl-indol-1-yl)-acetic acid]
6.79	Cc1c(S(=O)(=O)NCc2ccc(Cl)cc2)c2cc(F)ccc2n1CC(=O)O [Compound 23, [3-(4-Chloro-benzylsulfamoyl)-5-fluoro-2-methyl-indol-1-yl]-acetic acid]
6.92	Cc1c(S(=O)(=O)N(C)Cc2ccccc2)c2cc(F)ccc2n1CC(=O)O [Compound 24, [3-(Benzyl-methyl-sulfamoyl)-5-fluoro-2-methyl-indol-1-yl]-acetic acid]
5.37	Cc1c(S(=O)(=O)Nc2cccnc2)c2cc(F)ccc2n1CC(=O)O [Compound 25, [5-Fluoro-2-methyl-3-(pyridin-3-ylsulfamoyl)-indol-1-yl]-acetic acid]

The next lines start with the compound.

Structure (SMILES)	pKi
Cc1c(S(=O)(=O)Nc2ccccc2Cl)c2cc(F)ccc2n1CC(=O)O [Compound 14, [3-(2-Chloro-phenylsulfamoyl)-5-fluoro-2-methyl-indol-1-yl]-acetic acid]	6.65
Cc1c(S(=O)(=O)NCc2ccccc2)c2cc(F)ccc2n1CC(=O)O [Compound 15, (3-Benzylsulfamoyl-5-fluoro-2-methyl-indol-1-yl)-acetic acid]	6.56
COc1ccccc1NS(=O)(=O)c1c(C)n(CC(=O)O)c2ccc(F)cc12 [Compound 16, [5-Fluoro-3-(2-methoxy-phenylsulfamoyl)-2-methyl-indol-1-yl]-acetic acid]	6.11
COc1ccc(NS(=O)(=O)c2c(C)n(CC(=O)O)c3ccc(F)cc23)cc1 [Compound 17, [5-Fluoro-3-(4-methoxy-phenylsulfamoyl)-2-methyl-indol-1-yl]-acetic acid]	5.84
Cc1c(S(=O)(=O)Nc2ccccc2)c2cc(F)ccc2n1CC(=O)O [Compound 18, (5-Fluoro-2-methyl-3-phenylsulfamoyl-indol-1-yl)-acetic acid]	6.63

These compounds were tested against T1, CRTH2 (assay: Calcium mobilisation assay in CHO/CRTH2 cells (PGD2-induced calcium flux)). Settings: agonist, n=3, read-out: EC50 for increase in intracellular Ca2+ mobilisation.
Type: cell-based
Procedure: as §1
Cells were seeded onto poly-D-lysine coated 96-well plates at a density of 80,000 cells per well and incubated at 37° C. overnight to allow the cells to adhere. Cells were washed twice with HBSS and incubated for 1 h at 37° C. in 100 μl HBSS and 100 μl calcium-3-dye (Molecular Devices) solution, supplemented with 4 mM probenecid. Changes in fluorescence were monitored over a 50 s time course with agonist addition at 17s using a Flexstation (Molecular Devices).

Structure (SMILES)	pEC50
CCCCC[C@H](O)/C=C/[C@H]1C(=O)C[C@H](O)[C@@H]1C/C=C\CCCC(=O)O [PGD2, prostaglandin D2, reference compound]	8.62

Same assay, conditions: inhibition of PGD2-induced calcium flux, read-out: CRTH2 Ca flux IC50

pIC50	Structure (SMILES)
6.41	Cc1c(S(=O)(=O)Nc2ccccc2Cl)c2cc(F)ccc2n1CC(=O)O [Compound 14, [3-(2-Chloro-phenylsulfamoyl)-5-fluoro-2-methyl-indol-1-yl]-acetic acid]
5.97	Cc1cccc(NS(=O)(=O)c2c(C)n(CC(=O)O)c3ccc(F)cc23)c1 [Compound 21, (5-Fluoro-2-methyl-3-m-tolylsulfamoyl-indol-1-yl)-acetic acid]

These compounds were tested against T2, DP receptor (Homo sapiens, UniProt Q13258) (assay: [3H]PGD2 radioligand binding on CHO/DP cell membranes). Settings: competition versus [3H]PGD2, CHO/DP membranes.
T2 construct: expressed in transfected cells; host or cells: Chinese Hamster Ovary (CHO) cells, G418 selected
T2 sequence (Q13258 1-359): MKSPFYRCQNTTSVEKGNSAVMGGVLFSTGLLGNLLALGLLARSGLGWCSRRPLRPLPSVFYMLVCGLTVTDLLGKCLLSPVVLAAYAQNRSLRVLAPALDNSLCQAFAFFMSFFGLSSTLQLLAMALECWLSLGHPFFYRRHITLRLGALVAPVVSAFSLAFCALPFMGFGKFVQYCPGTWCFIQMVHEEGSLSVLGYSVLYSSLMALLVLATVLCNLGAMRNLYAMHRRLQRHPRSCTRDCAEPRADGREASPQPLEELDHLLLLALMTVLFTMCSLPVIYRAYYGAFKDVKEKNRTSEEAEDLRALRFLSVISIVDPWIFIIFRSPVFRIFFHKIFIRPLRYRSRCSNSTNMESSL
Procedure: as §1, §2, §3

pKi	Structure (SMILES)
< 5.00	Cc1c(S(=O)(=O)NCc2ccc(Cl)c(Cl)c2)c2cc(F)ccc2n1CC(=O)O [Compound 19, [3-(3,4-Dichloro-benzylsulfamoyl)-5-fluoro-2-methyl-indol-1-yl]-acetic acid]
< 5.00	COc1cccc(NS(=O)(=O)c2c(C)n(CC(=O)O)c3ccc(F)cc23)c1 [Compound 20, [5-Fluoro-3-(3-methoxy-phenylsulfamoyl)-2-methyl-indol-1-yl]-acetic acid]
< 5.00	Cc1cccc(NS(=O)(=O)c2c(C)n(CC(=O)O)c3ccc(F)cc23)c1 [Compound 21, (5-Fluoro-2-methyl-3-m-tolylsulfamoyl-indol-1-yl)-acetic acid]
< 5.00	Cc1ccc(NS(=O)(=O)c2c(C)n(CC(=O)O)c3ccc(F)cc23)cc1 [Compound 22, (5-Fluoro-2-methyl-3-p-tolylsulfamoyl-indol-1-yl)-acetic acid]
< 5.00	Cc1c(S(=O)(=O)NCc2ccc(Cl)cc2)c2cc(F)ccc2n1CC(=O)O [Compound 23, [3-(4-Chloro-benzylsulfamoyl)-5-fluoro-2-methyl-indol-1-yl]-acetic acid]
< 5.00	Cc1c(S(=O)(=O)N(C)Cc2ccccc2)c2cc(F)ccc2n1CC(=O)O [Compound 24, [3-(Benzyl-methyl-sulfamoyl)-5-fluoro-2-methyl-indol-1-yl]-acetic acid]
< 5.00	Cc1c(S(=O)(=O)Nc2cccnc2)c2cc(F)ccc2n1CC(=O)O [Compound 25, [5-Fluoro-2-methyl-3-(pyridin-3-ylsulfamoyl)-indol-1-yl]-acetic acid]

Second part, the compound before the results:

Structure (SMILES)	pKi
Cc1c(S(=O)(=O)NCc2ccccc2)c2cc(F)ccc2n1CC(=O)O [Compound 15, (3-Benzylsulfamoyl-5-fluoro-2-methyl-indol-1-yl)-acetic acid]	< 5.00
COc1ccccc1NS(=O)(=O)c1c(C)n(CC(=O)O)c2ccc(F)cc12 [Compound 16, [5-Fluoro-3-(2-methoxy-phenylsulfamoyl)-2-methyl-indol-1-yl]-acetic acid]	< 5.00
COc1ccc(NS(=O)(=O)c2c(C)n(CC(=O)O)c3ccc(F)cc23)cc1 [Compound 17, [5-Fluoro-3-(4-methoxy-phenylsulfamoyl)-2-methyl-indol-1-yl]-acetic acid]	< 5.00
Cc1c(S(=O)(=O)Nc2ccccc2)c2cc(F)ccc2n1CC(=O)O [Compound 18, (5-Fluoro-2-methyl-3-phenylsulfamoyl-indol-1-yl)-acetic acid]	< 5.00
